Laboratory results from patent publication US20240352000A1, “NOVEL PYRIMIDINE-2,4-DIAMINE DERIVATIVES, PREPARATION METHOD THEREFOR, AND PHARMACEUTICAL COMPOSITION CONTAINING SAME AS ACTIVE INGREDIENT FOR PREVENTION OR TREATMENT OF CANCER” (KOREA RESEARCH INSTITUTE OF CHEMICAL TECHNOLOGY, priority 2021, published 2024).

Legend:
Ba/F3 EGFR del19 = assay: CellTiter-Glo cell viability, Ba/F3 EGFR del19; assay type: cell-based; settings: 72 hours
Description: (§1) An experiment to measure the activity of the compounds of the present invention against the mutant Ba/F3 EGFR cell line was performed as follows using the CellTiter-Glo system sold by Promega. The CellTiter-Glo assay is a method to confirm the cell viability by measuring ATP present in cells in cell culture. For the Ba/F3 EGFR del19, Ba/F3 EGFR del19/T790M, Ba/F3 del19/T790M/C797S mutant cell line, a cell line provided by Crown Bioscience was purchased and used. The Ba/F3 EGFR del19, Ba/F3 EGFR del19/T790M, Ba/F3 del19/T790M/C797S mutant cell line was cultured in RPMI containing 10% FBS and 1% penicillin-streptomycin with 1 μg of puromycin in an incubator at 37° C. and 5% CO2.
(§2) Analysis of the inhibitory ability effect of the compounds against EGFR was conducted according to the following analysis reaction recipe.
(§3) 2500 cells/90 μL were passaged and cultured in a 96-well cell culture plate, and after 24 hours, treated with the compound represented by Formula 1 at a concentration of 0, 0.01, 0.03, 0.1, 0.3, 1, 3, and 10 (μM). After reaction for 72 hours, the plate treated with the compound was left at room temperature for 30 minutes, then further treated with 100 μl of reagent, and shaken at room temperature for 10 minutes. Finally, the ratio of fluorescence values at 570 nm was obtained using the equipment to quantitatively measure and confirmed the inhibitory ability of the compounds. The measurement values measured at eight compound concentrations were analyzed using the Prism program (version 5.01, Graphpad Software, Inc.), and the IC50 value, which is an indicator of the inhibitory ability of the compound, was calculated.

Ba/F3 EGFR del19/T790M = assay: CellTiter-Glo cell viability, Ba/F3 EGFR del19/T790M; assay type: cell-based; settings: 72 hours
Description: as §1, §2, §3

[1] = system: Ba/F3 EGFR del19/T790M/C797S; assay: CellTiter-Glo cell viability, Ba/F3 EGFR del19/T790M/C797S; assay type: cell-based; settings: 72 hours
Description: as §1, §2, §3

Ba/F3 EGFR L858R = assay: CellTiter-Glo cell viability, Ba/F3 EGFR L858R; assay type: cell-based; settings: 72 hours
Description: (§4) An experiment to measure the activity of the compounds of the present invention against the mutant Ba/F3 EGFR cell line was performed as follows using the CellTiter-Glo system sold by Promega. The CellTiter-Glo assay is a method to confirm the cell viability by measuring ATP present in cells in cell culture. The Ba/F3 EGFR L858R, Ba/F3 EGFR L858R/T790M, Ba/F3 EGFR L858R/T790M/C797S mutant cell line was used. The Ba/F3 EGFR L858R, Ba/F3 EGFR L858R/T790M, and Ba/F3 EGFR L858R/T790M/C797S mutant cell lines was cultured in RPMI containing 10% FBS and 1% penicillin-streptomycin with 1 μg of puromycin in an incubator at 37° C. and 5% CO2.
as §2
as §3, with “μl” for “μL”

Ba/F3 EGFR L858R/T790M = assay: CellTiter-Glo cell viability, Ba/F3 EGFR L858R/T790M; assay type: cell-based; settings: 72 hours
Description: as §4, §2
as §3, with “μl” for “μL”

[2] = system: Ba/F3 EGFR L858R/T790M/C797S; assay: CellTiter-Glo cell viability, Ba/F3 EGFR L858R/T790M/C797S; assay type: cell-based; settings: 72 hours
Description: as §4, §2
as §3, with “μl” for “μL”

EGFR A763_Y764insFHEA = EGFR A763_Y764insFHEA (Homo sapiens (Human), UniProt P00533, INS763FHEA); assay: HTRF enzyme assay, EGFR Ex20 insertion mutant enzyme; assay type: biochemical; settings: recombinant enzyme, 37° C. 2 hours
Description: An experiment to measure the activity of the compounds of the present invention against EGFR mutant enzymes was performed as follows using the HTRF system sold by Cisbio. For the EGFR mutant enzyme, EGFR A763_Y764insFHEA enzyme, a recombinant protein provided by SignalChem was purchased and used.
(§5) The composition of the assay buffer used for measuring the activity was 50 mM Tris-HCl pH 7.5, 100 mM NaCl, 7.5 mM MgCl2, 3 mM KCl, 0.01% Tween 20, 0.1% BSA, and 1 mM DTT. Here, an enzyme reaction was performed using ATP at a concentration of […] and a peptide substrate labeled with biotin at a concentration of […]. Analysis of the inhibitory effect of the compounds against the EGFR activity was conducted according to the following analysis reaction recipe. • Component 1: 4 μL of an EGFR mutant enzyme • Component 2: 2 μL of a compound solution • Component 3: 4 μL of ATP and a peptide labeled with biotin
(§6) The enzyme reaction was started by first mixing Component 1 and Component 2 and then adding Component 3. After reaction at 37° C. for 2 hours, […] of measurement solution consisting of streptavidin-XL665 and europium-labeled anti-phosphotyrosine antibody provided by Cisbio was added to the enzyme reaction solution and reacted at room temperature for 1 hour. Finally, the ratio of fluorescence values at 615 nm and 665 nm was obtained using the Envision equipment from Perkin-Elmer to quantitatively measure the enzyme activity and confirmed the inhibitory ability of the compounds. The measurement values measured at seven compound concentrations were analyzed using the Prism program (version 5.01, Graphpad Software, Inc.), and the IC50 value, which is an indicator of the inhibitory ability of the compound, was calculated.

[3] = system: Ba/F3 EGFR V769_D770insASV; assay: CellTiter-Glo cell growth, Ba/F3 EGFR Ex20 insertion mutant; assay type: cell-based; settings: 72 hours
Description: as §1, with “the” for “the mutant”, “EGFR V769_D770insASV mutant” for “EGFR”, “EGFR V769_D770insASV” for “EGFR del19, Ba/F3 EGFR del19/T790M, Ba/F3 del19/T790M/C797S”, “1 μg/ml” for “1 μg”
Analysis of the inhibitory ability effect of the compounds against the EGFR mutant cell growth was conducted according to the following analysis reaction recipe.
as §3, with “1000 cells/100 μL were” for “2500 cells/90 μL were”, “[…]. After reaction” for “and 10 (μM). After reaction”, “with 100 μL of reagent,” for “with 100 μl of reagent,”, “confirmed the cell growth inhibitory ability” for “confirmed the inhibitory ability”, “of the cell growth inhibitory ability” for “of the inhibitory ability”

HER2 A775_G776insYVMA = HER2 A775_G776insYVMA (Homo sapiens (Human), UniProt P04626, INS775YVMA); assay: HTRF enzyme assay, HER2 mutant enzyme; assay type: biochemical; settings: recombinant enzyme, 37° C. 2 hours
Description: An experiment to measure the activity of the compounds of the present invention against HER mutant enzymes was performed as follows using the HTRF system sold by Cisbio. For the HER2 mutant enzyme, HER2 A775_G776insYVMA mutant enzyme, a recombinant protein provided by Carna Biosciences was purchased and used.
as §5, with “performed using with ATP at” for “performed using ATP at”, “substrate labeled biotin at” for “substrate labeled with biotin at”, “against the HER2 A775_G776insYVMA mutant activity was” for “against the EGFR activity was”, “μL of a HER2 A775_G776insYVMA mutant enzyme” for “μL of an EGFR mutant enzyme”
as §6

Sequence of HER2 A775_G776insYVMA (P04626 other isoform, or with tags, fused parts or gaps del 1-675/ins YVMA behind 775 limits assumed): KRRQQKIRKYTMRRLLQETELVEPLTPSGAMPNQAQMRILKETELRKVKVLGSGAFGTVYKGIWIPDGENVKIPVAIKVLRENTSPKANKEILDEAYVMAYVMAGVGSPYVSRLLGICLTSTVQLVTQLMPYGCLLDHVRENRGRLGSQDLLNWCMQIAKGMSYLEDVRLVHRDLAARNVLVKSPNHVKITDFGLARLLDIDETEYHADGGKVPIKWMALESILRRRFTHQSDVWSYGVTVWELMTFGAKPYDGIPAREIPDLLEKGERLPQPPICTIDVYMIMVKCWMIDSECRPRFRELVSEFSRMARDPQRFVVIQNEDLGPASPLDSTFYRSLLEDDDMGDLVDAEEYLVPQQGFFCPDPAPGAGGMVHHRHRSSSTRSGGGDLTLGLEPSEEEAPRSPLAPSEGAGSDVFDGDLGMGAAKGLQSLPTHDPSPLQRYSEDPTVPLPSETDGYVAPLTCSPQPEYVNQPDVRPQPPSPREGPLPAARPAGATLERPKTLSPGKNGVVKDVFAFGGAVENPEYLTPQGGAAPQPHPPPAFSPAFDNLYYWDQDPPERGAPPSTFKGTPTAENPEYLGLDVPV
Sequence of EGFR A763_Y764insFHEA (P00533 other isoform, or with tags, fused parts or gaps del 1-694/ins FHEA behind 763 limits assumed): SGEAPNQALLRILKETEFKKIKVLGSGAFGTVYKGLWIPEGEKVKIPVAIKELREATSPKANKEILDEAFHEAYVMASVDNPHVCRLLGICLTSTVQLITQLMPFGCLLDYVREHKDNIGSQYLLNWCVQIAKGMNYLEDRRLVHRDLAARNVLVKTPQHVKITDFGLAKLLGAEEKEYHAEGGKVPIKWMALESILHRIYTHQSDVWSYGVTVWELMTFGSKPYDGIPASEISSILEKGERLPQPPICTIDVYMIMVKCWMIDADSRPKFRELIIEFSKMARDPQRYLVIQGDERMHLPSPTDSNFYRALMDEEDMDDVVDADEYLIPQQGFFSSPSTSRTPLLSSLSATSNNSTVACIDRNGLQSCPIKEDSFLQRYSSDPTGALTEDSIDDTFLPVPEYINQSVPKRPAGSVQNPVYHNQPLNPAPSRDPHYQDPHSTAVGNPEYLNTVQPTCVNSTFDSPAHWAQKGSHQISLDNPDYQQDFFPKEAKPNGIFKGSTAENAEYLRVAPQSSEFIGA

Compound | IC50 (Ba/F3 EGFR del19) [nM] | IC50 (Ba/F3 EGFR del19/T790M) [nM] | IC50 [1] [nM] | IC50 (Ba/F3 EGFR L858R) [nM] | IC50 (Ba/F3 EGFR L858R/T790M) [nM] | IC50 [2] [nM] | IC50 (EGFR A763_Y764insFHEA) [nM] | IC50 [3] [nM] | IC50 (HER2 A775_G776insYVMA) [nM]
COc1cc(N2CCC(N3CCN(C)CC3)CC2)ccc1Nc1ncc(Cl)c(Nc2cccc3c2N(C(C)=O)CC3)n1 [Example 12, 1-(7-((5-chloro-2-((2-methoxy-4-(4-(4-methylpiperazin-1-yl)piperidin-1-yl)phenyl)amino)pyrimidin-4-yl)amino)indolin-1-yl)ethan-1-one] | < 100 | > 100 | > 100 | > 100 | > 100 | > 100 | 178 | > 100 | 25
CCS(=O)(=O)N1CCc2cccc(Nc3nc(Nc4ccc(N5CCC(N6CCN(C)CC6)CC5)cc4OC)ncc3Cl)c21 [Example 13, 5-chloro-N4-(1-(ethylsulfonyl)indolin-7-yl)-N2-(2-methoxy-4-(4-(4-methylpiperazin-1-yl)piperidin-1-yl)phenyl)pyrimidine-2,4-diamine] | < 100 | > 100 | > 100 | > 100 | > 100 | > 100 | 91 | > 100 | 26
CCC(=O)N1CCc2cccc(Nc3nc(Nc4ccc(N5CCC(N6CCN(C)CC6)CC5)cc4OC)ncc3Cl)c21 [Example 14, 1-(7-((5-chloro-2-((2-methoxy-4-(4-(4-methylpiperazin-1-yl)piperidin-1-yl)phenyl)amino)pyrimidin-4-yl)amino)indolin-1-yl)propan-1-one] | < 100 | > 100 | > 100 | > 100 | > 100 | > 100 | > 100 | > 100 | > 100
COc1cc(N2CCC(N3CCN(C)CC3)CC2)ccc1Nc1ncc(Cl)c(Nc2cccc3c2N(C(C)=O)CCC3)n1 [Example 15, 1-(8-((5-chloro-2-((2-methoxy-4-(4-(4-methylpiperazin-1-yl)piperidin-1-yl)phenyl)amino)pyrimidin-4-yl)amino)-3,4-dihydroquinolin-1(2H)-yl)ethan-1-one] | > 100 | > 100 | > 100 | > 100 | > 100 | > 100 | > 100 | > 100 | 589
CCC(=O)N1CCCc2cccc(Nc3nc(Nc4ccc(N5CCC(N6CCN(C)CC6)CC5)cc4OC)ncc3Cl)c21 [Example 16, 1-(8-((5-chloro-2-((2-methoxy-4-(4-(4-methylpiperazin-1-yl)piperidin-1-yl)phenyl)amino)pyrimidin-4-yl)amino)-3,4-dihydroquinolin-1(2H)-yl)propan-1-one] | > 100 | > 100 | > 100 | > 100 | > 100 | > 100 | > 100 | > 100 | > 100
COc1cc(N2CCC(N3CCNCC3)CC2)ccc1Nc1ncc(Cl)c(Nc2cccc3c2N(S(C)(=O)=O)CC3)n1 [Example 17, 5-chloro-N2-(2-methoxy-4-(4-(piperazin-1-yl)piperidin-1-yl)phenyl)-N4-(1-(methylsulfonyl)indolin-7-yl)pyrimidine-2,4-diamine] | < 100 | < 100 | > 100 | < 100 | > 100 | > 100 | 20 | > 100 | 4
